Experiments:
Format in all cases: biochemical
[1] = biological target: T1, calpain-I (Homo sapiens, UniProt P07384); experiment: Calpain I enzyme inhibition in vitro (kinetic fluorescence assay)
T1 construct: calpain-I—isolated from human erythrocytes; purchased Calbiochem 208713; host or cells: human erythrocytes (tissue isolate)
T1 sequence (P07384 2-714 limits assumed): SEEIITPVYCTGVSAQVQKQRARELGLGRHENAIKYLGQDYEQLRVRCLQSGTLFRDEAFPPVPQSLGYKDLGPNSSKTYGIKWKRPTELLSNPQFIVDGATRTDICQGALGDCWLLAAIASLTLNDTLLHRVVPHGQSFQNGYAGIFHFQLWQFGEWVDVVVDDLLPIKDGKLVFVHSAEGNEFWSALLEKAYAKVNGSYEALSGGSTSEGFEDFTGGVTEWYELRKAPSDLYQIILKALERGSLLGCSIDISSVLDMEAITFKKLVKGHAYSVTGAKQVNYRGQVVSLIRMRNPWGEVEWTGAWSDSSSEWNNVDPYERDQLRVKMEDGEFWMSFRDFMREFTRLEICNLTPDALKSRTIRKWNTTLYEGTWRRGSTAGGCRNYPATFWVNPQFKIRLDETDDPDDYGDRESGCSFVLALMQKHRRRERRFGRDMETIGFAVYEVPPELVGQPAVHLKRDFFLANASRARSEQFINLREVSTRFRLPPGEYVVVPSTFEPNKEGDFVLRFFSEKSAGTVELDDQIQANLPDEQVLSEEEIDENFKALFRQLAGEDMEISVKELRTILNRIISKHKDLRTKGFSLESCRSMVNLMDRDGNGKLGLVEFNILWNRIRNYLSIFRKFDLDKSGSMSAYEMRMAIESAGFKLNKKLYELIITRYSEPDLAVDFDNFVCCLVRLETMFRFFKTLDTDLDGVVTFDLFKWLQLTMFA
T1 sequence (P04632 1-268 partner): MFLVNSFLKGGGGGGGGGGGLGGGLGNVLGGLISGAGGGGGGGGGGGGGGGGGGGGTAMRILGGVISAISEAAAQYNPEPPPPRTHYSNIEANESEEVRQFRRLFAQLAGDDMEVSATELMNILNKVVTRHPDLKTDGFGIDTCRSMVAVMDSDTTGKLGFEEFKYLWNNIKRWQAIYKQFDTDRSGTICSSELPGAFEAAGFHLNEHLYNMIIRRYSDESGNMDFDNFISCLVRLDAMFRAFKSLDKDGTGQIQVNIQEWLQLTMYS
Procedure: Testing for blockade of the corresponding enzymic activities was carried out by means of kinetic fluorescence assays (excitation 390 nm, emission 460 nm).
Apparent Ki values were calculated from the experimentally determined IC50 values by the Cheng-Prussoff relation assuming a reversible competitive enzyme inhibition. The Km values of the substrates used under the assay conditions indicated above were: 90 μM (Z-Phe-Arg-AMC, cathepsin B), 10 μM (Z-Gly-Pro-Arg-AMC, cathepsin K), 2 μM (Z-Phe-Arg-AMC, cathepsin L), and 30 μM (Z-Val-Val-Arg-AMC, cathepsin S).
The indicated Ki values are averages of the inhibition constants calculated on the basis of 2 to 4 independent dose-effect plots.
• 1. Calpain I: • 20 nM calpain-I—isolated from human erythrocytes (Calbiochem #208713), 100 μM Suc-Leu-Tyr-AMC (Bachem #1-1355) as substrate in buffer with 62 mM imidazole, 0.3 mM CaCl2, 0.10% CHAPS, 0.05% BSA, 1 mM DTT at pH 7.3 and room temperature. • 2. Cathepsin B: • 0.25 nM cathepsin B—isolated from human liver (Calbiochem #219362), 100 μM Z-Phe-Arg-AMC (Bachem #1-1160) as substrate 50 mM MES, 2 mM EDTA, 0.05% Brij 35, 2.5 mM L-cysteine, pH 6.0, room temperature. • 3. […]

[2] = biological target: T2, cathepsin S (Homo sapiens, UniProt P25774); experiment: Cathepsin S enzyme inhibition in vitro (kinetic fluorescence assay); conditions: Ki(cathepsin S)/Ki(calpain) ratio
T2 construct: purchased Calbiochem 219343; host or cells: E. coli
Summary of the method: (§1)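 Kinetic fluorescence (ex 390/em 460 nm), RT. Calpain-I: 20 nM erythrocyte-derived, 100 μM Suc-Leu-Tyr-AMC, imidazole/CaCl2, pH 7.3. Cathepsins, pH 6.0 MES/EDTA/cysteine: B 0.25 nM liver, 100 μM Z-Phe-Arg-AMC; L 1 nM liver, 2 μM Z-Phe-Arg-AMC; S 0.5 nM recombinant, 20 μM Z-Val-Val-Arg-AMC. Cheng-Prusoff Ki, mean of 2–4 curves.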

[3] = biological target: T3, cathepsin B (Homo sapiens, UniProt P07858); experiment: Cathepsin B enzyme inhibition in vitro (kinetic fluorescence assay); conditions: Ki(cathepsin B)/Ki(calpain) ratio
T3 construct: cathepsin B—isolated from human liver; purchased Calbiochem 219362; host or cells: human liver (tissue isolate)
Summary of the method: as §1

[4] = biological target: T4, cathepsin K (Homo sapiens, UniProt P43235); experiment: Cathepsin K enzyme inhibition in vitro (kinetic fluorescence assay); conditions: Ki(cathepsin K)/Ki(calpain) ratio
T4 construct: purchased Calbiochem 342001; host or cells: E. coli
T4 sequence (P43235 115-329): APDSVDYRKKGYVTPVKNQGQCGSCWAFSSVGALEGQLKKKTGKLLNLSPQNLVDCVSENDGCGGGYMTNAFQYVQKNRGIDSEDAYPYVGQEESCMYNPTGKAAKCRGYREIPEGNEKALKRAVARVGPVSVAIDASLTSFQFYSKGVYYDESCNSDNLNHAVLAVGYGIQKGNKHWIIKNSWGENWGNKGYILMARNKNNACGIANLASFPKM

[5] = biological target: T5, cathepsin L (Homo sapiens, UniProt P07711); experiment: Cathepsin L enzyme inhibition in vitro (kinetic fluorescence assay); conditions: Ki(cathepsin L)/Ki(calpain) ratio
T5 construct: cathepsin L—isolated from human liver; purchased Calbiochem 219402; host or cells: human liver (tissue isolate)
Summary of the method: as §1

T2 sequence (P25774 115-331): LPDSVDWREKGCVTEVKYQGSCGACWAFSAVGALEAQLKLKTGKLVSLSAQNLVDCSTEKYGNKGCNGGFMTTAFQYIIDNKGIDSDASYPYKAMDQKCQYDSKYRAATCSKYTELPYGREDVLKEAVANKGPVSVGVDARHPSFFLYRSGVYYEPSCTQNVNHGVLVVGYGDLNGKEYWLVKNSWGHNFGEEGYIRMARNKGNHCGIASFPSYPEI
T5 sequence (P07711 114-333): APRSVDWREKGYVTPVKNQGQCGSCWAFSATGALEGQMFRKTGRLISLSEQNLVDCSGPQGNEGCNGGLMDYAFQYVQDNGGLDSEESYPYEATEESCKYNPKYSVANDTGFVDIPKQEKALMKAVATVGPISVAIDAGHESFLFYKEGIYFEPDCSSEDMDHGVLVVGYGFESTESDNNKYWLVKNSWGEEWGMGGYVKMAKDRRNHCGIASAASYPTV

| Structure (SMILES) | Ki [1] [nM] | Sel cat. S [2] | Sel cat. B [3] | Sel cat. K [4] | Sel cat. L [5] |
| --- | --- | --- | --- | --- | --- |
| Cl.NC(=O)C(=O)C(Cc1ccccc1)NC(=O)c1cccnc1-n1cnc(-c2ccc(CN3CCOCC3)cc2)c1 (stereo not drawn) [Example 26, N-(3-Amino-1-benzyl-2,3-dioxopropyl)-2-{4-[4-(morpholin-4-ylmethyl)phenyl]-1H-imidazol-1-yl}nicotinamide hydrochloride] | < 40 | ++ (++ means a Ki(cathepsin S)/Ki(calpain) ratio of ≧100) | – | – | – |
| COc1ccc(CC(NC(=O)c2cccnc2-n2ccc(-c3ccccc3)n2)C(=O)C(N)=O)cc1 (stereo not drawn) [Example 80, N-[3-Amino-1-(4-methoxybenzyl)-2,3-dioxopropyl]-2-(3-phenyl-1H-pyrazol-1-yl)nicotinamide] | – | ++ (++ means a Ki(cathepsin S)/Ki(calpain) ratio of ≧100) | ++ (++ means a Ki(cathepsin B)/Ki(calpain) ratio of ≧30) | + (+ means 10≦Ki(cathepsin K)/Ki(calpain)<30) | ++ (++ means a Ki(cathepsin L)/Ki(calpain) ratio of ≧50) |
| COc1ccc(CC(NC(=O)c2cccnc2-n2ccc(-c3ccc(F)cc3OC)n2)C(=O)C(N)=O)cc1 (stereo not drawn) [Example 136, N-(3-Amino-1-{[4-(methyloxy)phenyl]methyl}-2,3-dioxopropyl)-2-{3-[4-fluoro-2-(methyloxy)phenyl]-1H-pyrazol-1-yl}pyridine-3-carboxamide] | – | ++ (++ means a Ki(cathepsin S)/Ki(calpain) ratio of ≧100) | ++ (++ means a Ki(cathepsin B)/Ki(calpain) ratio of ≧30) | ++ (++ means a Ki(cathepsin K)/Ki(calpain) ratio of ≧30) | ++ (++ means a Ki(cathepsin L)/Ki(calpain) ratio of ≧50) |
| NC(=O)C(=O)C(Cc1ccccc1)NC(=O)c1cccnc1-n1ccc(-c2ccccc2F)n1 (stereo not drawn) [Example 76, N-(3-Amino-1-benzyl-2,3-dioxopropyl)-2-[3-(2-fluorophenyl)-1H-pyrazol-1-yl]nicotinamide] | – | ++ (++ means a Ki(cathepsin S)/Ki(calpain) ratio of ≧100) | ++ (++ means a Ki(cathepsin B)/Ki(calpain) ratio of ≧30) | + (+ means 10≦Ki(cathepsin K)/Ki(calpain)<30) | ++ (++ means a Ki(cathepsin L)/Ki(calpain) ratio of ≧50) |
| COc1ccc(Cl)cc1-c1ccn(-c2ncccc2C(=O)NC(Cc2ccccc2)C(=O)C(N)=O)n1 (stereo not drawn) [Example 131, N-[3-Amino-2,3-dioxo-1-(phenylmethyl)propyl]-2-{3-[5-chloro-2-(methyloxy)phenyl]-1H-pyrazol-1-yl}pyridine-3-carboxamide] | – | ++ (++ means a Ki(cathepsin S)/Ki(calpain) ratio of ≧100) | ++ (++ means a Ki(cathepsin B)/Ki(calpain) ratio of ≧30) | ++ (++ means a Ki(cathepsin K)/Ki(calpain) ratio of ≧30) | ++ (++ means a Ki(cathepsin L)/Ki(calpain) ratio of ≧50) |
